Data on 10 compounds can be found in ChEMBL document CHEMBL1201862, “PubChem BioAssay data set” (2004).

Structures are written as SMILES.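 A five-concentration, 48-hour dose response in 96-well plates underlies each endpoint, interpolated linearly between surrounding concentrations. GI50 is the concentration that inhibits growth by half.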 Active and inactive are the calls of the source. Cut-off read from the data, not from the text of the source: active = GI50 up to about 1.1 µM and inactive = higher.

Some test systems named below: 786-0; A549; ACHN; BT-549; CAKI-1; DU-145; HT-29; MDA-MB-231; MDA-N; Malme-3M; OVCAR-3; OVCAR-5; OVCAR-8; RPMI-8226; RXF 393; SF-268; SF-295; SNB-19; U-251; UACC-62.
Test in all cases: NCI anticancer screen, dose series, 48 h

Regarding `Oc1ccc2ccccc2c1C(c1ccc(Cl)cc1)c1c(O)ccc2ccccc12`, the GI50 in the experiment with 786-0 was 3.66 µM (inactive); in the experiment with A549 it was 2.95 µM (inactive); with ACHN, 3.52 µM (inactive); in the experiment on BT-549 it was 4.65 µM (inactive); with CAKI-1, 2.71 µM (inactive); with DU-145, 3.37 µM (inactive). The GI50 in the experiment with HT-29 was 2.98 µM (inactive); in the experiment on MDA-MB-231 it was 3.17 µM (inactive); in the experiment with MDA-N, 3.31 µM (inactive); in the experiment with Malme-3M, 2 µM (inactive); in the experiment with OVCAR-3, 2.63 µM (inactive); with OVCAR-5, 3.08 µM (inactive). Also, the GI50 in the experiment with OVCAR-8 was 3.33 µM (inactive); with RPMI-8226 it was 2.01 µM (inactive); with RXF 393, 2.96 µM (inactive); with SF-268, 1.66 µM (inactive); with SF-295, 3.4 µM (inactive); with SNB-19 it was 4.93 µM (inactive). The GI50 in the experiment on U-251 was 3.43 µM (inactive); in the experiment on UACC-62, 3.48 µM (inactive).

Consider `CC[C@@]1(O)C(=O)OCc2c1cc1n(c2=O)Cc2c-1nc1ccc(N)cc1c2CC[Si](C)(C)C`, for which the GI50 in the experiment with 786-0, with A549, in the experiment with ACHN, with BT-549, with CAKI-1 and in the experiment with DU-145 was < 0.01 µM (active) throughout. The GI50 with HT-29 was < 0.01 µM (active); in the experiment on MDA-MB-231 it was < 0.0363 µM (active); with MDA-N, < 0.01 µM (active); in the experiment with Malme-3M, < 0.0115 µM (active); in the experiment with OVCAR-3, < 0.0188 µM (active); with OVCAR-5 it was < 0.0223 µM (active). Also, the GI50 with OVCAR-8, with RPMI-8226, with RXF 393, in the experiment on SF-268, with SF-295 and in the experiment on SNB-19 was < 0.01 µM (active) throughout. Moreover, the GI50 in the experiment on U-251 and in the experiment with UACC-62 was < 0.01 µM (active) in each case.

In the case of `Cc1ccc2c(c1C)C(=O)C1(Cc3cc4c(cc3C1=O)CCC4)C2` (stereo not given), the GI50 with 786-0, in the experiment with A549, in the experiment with ACHN, with BT-549, in the experiment with CAKI-1 and with DU-145 was > 100 µM (inactive) throughout. The GI50 in the experiment on HT-29 is > 100 µM (inactive); with MDA-MB-231, > 100 µM (inactive); in the experiment on MDA-N, > 100 µM (inactive); in the experiment with Malme-3M, > 100 µM (inactive); in the experiment on OVCAR-3, 87.9 µM (inactive); with OVCAR-5, > 100 µM (inactive). The GI50 is > 100 µM (inactive) with OVCAR-8; > 100 µM (inactive) in the experiment on RPMI-8226; 99.8 µM (inactive) with RXF 393; > 100 µM (inactive) in the experiment with SF-268; > 100 µM (inactive) in the experiment on SF-295; > 100 µM (inactive) in the experiment on SNB-19. Further, the GI50 in the experiment with U-251 and in the experiment on UACC-62 was > 100 µM (inactive) in each case.

In the case of `CC(O)C1CC1(CO)CNc1cc(Cl)nc(N)n1` (stereo not given), the GI50 in the experiment with 786-0, in the experiment on A549, in the experiment on ACHN, with BT-549, in the experiment with CAKI-1 and in the experiment on DU-145 was > 100 µM (inactive) each time. The GI50 with HT-29, in the experiment on MDA-MB-231, in the experiment with MDA-N, with Malme-3M, in the experiment on OVCAR-3 and in the experiment on OVCAR-5 was > 100 µM (inactive) in each case. For the same compound, the GI50 with OVCAR-8, in the experiment on RPMI-8226, with RXF 393, in the experiment on SF-268, in the experiment on SF-295 and in the experiment with SNB-19 was > 100 µM (inactive) each time. For the same compound, the results for the GI50 in the experiment on U-251 and in the experiment on UACC-62 were > 100 µM (inactive) and > 10 µM (inactive), respectively.

For `CC(C)=CCC/C(C)=C/CC/C(C)=C/CCN(C)CCO`, the GI50 in the experiment with 786-0 is 2.11 µM (inactive); in the experiment with A549 it was 9.77 µM (inactive); in the experiment on ACHN, 10.8 µM (inactive); in the experiment with BT-549, 10.8 µM (inactive); with CAKI-1 it was 6.32 µM (inactive); in the experiment with DU-145, 12.7 µM (inactive). The GI50 with HT-29 is 11.2 µM (inactive); in the experiment on MDA-MB-231, 10.9 µM (inactive); in the experiment on MDA-N, 3.75 µM (inactive); with Malme-3M, 3.54 µM (inactive); in the experiment with OVCAR-3, 13.8 µM (inactive); with OVCAR-5, 6.46 µM (inactive). In addition, the GI50 with OVCAR-8 is 11.7 µM (inactive); in the experiment on RPMI-8226, 2.96 µM (inactive); with RXF 393, 7.59 µM (inactive); in the experiment with SF-268 it was 12.2 µM (inactive); in the experiment on SF-295, 3.61 µM (inactive); in the experiment with SNB-19 it was 8.07 µM (inactive). The GI50 in the experiment with U-251 was 3.3 µM (inactive); in the experiment on UACC-62, 13.5 µM (inactive).

Turning to `C[C@]12CC[C@H](O)CC1=CC[C@@H]1[C@@H]2CC[C@]2(C)C(=N/N)/C(=N\O)C[C@@H]12`, the GI50 in the experiment with 786-0 was 50.7 µM (inactive); in the experiment on A549, > 100 µM (inactive); in the experiment with ACHN it was > 100 µM (inactive); with BT-549, 32.8 µM (inactive); in the experiment on CAKI-1, > 100 µM (inactive); in the experiment on DU-145, > 100 µM (inactive). Also, the GI50 in the experiment with HT-29 was 36 µM (inactive); with MDA-MB-231, 32.7 µM (inactive); in the experiment with MDA-N, 11.9 µM (inactive); in the experiment on Malme-3M it was 27.1 µM (inactive); in the experiment on OVCAR-3 it was > 100 µM (inactive); with OVCAR-5, > 100 µM (inactive). The GI50 in the experiment with OVCAR-8 was > 100 µM (inactive); with RPMI-8226, > 100 µM (inactive); with RXF 393, > 100 µM (inactive); in the experiment on SF-268, 59.7 µM (inactive); in the experiment with SF-295, 35.1 µM (inactive); in the experiment with SNB-19, 35.2 µM (inactive). Further, the values for the GI50 in the experiment on U-251 and in the experiment on UACC-62 were 21.6 µM (inactive) and 58.5 µM (inactive), respectively.

Regarding `O=c1oc2c/c(=C\c3ccccc3)c(=O)c3cccc1c3-2`, the GI50 was 22.8 µM (inactive) in the experiment with 786-0; > 100 µM (inactive) in the experiment with A549; > 100 µM (inactive) in the experiment with ACHN; 28.3 µM (inactive) in the experiment on BT-549; 24.1 µM (inactive) with CAKI-1; 51.1 µM (inactive) with DU-145. The GI50 was 55.6 µM (inactive) with HT-29; 31.7 µM (inactive) with MDA-MB-231; 20.8 µM (inactive) in the experiment on MDA-N; 24.2 µM (inactive) in the experiment on Malme-3M; 23.6 µM (inactive) with OVCAR-3; 61.7 µM (inactive) in the experiment with OVCAR-5. Also, the GI50 was 19.8 µM (inactive) in the experiment with OVCAR-8; 36.2 µM (inactive) in the experiment with RPMI-8226; 32.5 µM (inactive) in the experiment on RXF 393; 24.1 µM (inactive) with SF-268; > 100 µM (inactive) in the experiment with SF-295; 31.8 µM (inactive) in the experiment with SNB-19. Besides, the GI50 with U-251 was 18.6 µM (inactive); in the experiment on UACC-62, 24.5 µM (inactive).

With `OCCO[P+]1(OCCO)n2c3ccc2C(c2ccccc2)=C2C=CC(=N2)C(c2ccccc2)=c2ccc(n21)=C(c1ccccc1)C1=NC(=C3c2ccccc2)C=C1`, the GI50 in the experiment on 786-0 was 0.0764 µM (active); in the experiment on A549 it was 0.0389 µM (active); in the experiment with ACHN it was 0.251 µM (active); with BT-549 it was 0.0118 µM (active); in the experiment on CAKI-1 it was 0.783 µM (active); in the experiment on DU-145, 0.0316 µM (active). Moreover, the GI50 in the experiment on HT-29 was 0.0281 µM (active); in the experiment with MDA-MB-231, 0.042 µM (active); with MDA-N, 0.0344 µM (active); with Malme-3M, 0.0408 µM (active); in the experiment on OVCAR-3 it was 0.0218 µM (active); in the experiment with OVCAR-5, 0.102 µM (active). The GI50 was 0.0767 µM (active) with OVCAR-8; < 0.01 µM (active) in the experiment on RPMI-8226; 0.182 µM (active) with RXF 393; 0.0263 µM (active) in the experiment with SF-268; 0.15 µM (active) in the experiment on SF-295; 0.0133 µM (active) in the experiment on SNB-19. In addition, the GI50 in the experiment with U-251 is 0.0152 µM (active); in the experiment with UACC-62, 0.0303 µM (active).

Take `c1ccc([P+](c2ccccc2)(c2ccccc2)c2ccc([P+](c3ccccc3)(c3ccccc3)c3ccccc3)cc2)cc1`: the GI50 in the experiment with 786-0 is > 100 µM (inactive); in the experiment with A549 it was 64.9 µM (inactive); with ACHN, > 100 µM (inactive); with BT-549, 31.3 µM (inactive); with CAKI-1 it was > 100 µM (inactive); in the experiment with DU-145, 52.8 µM (inactive). Besides, the GI50 with HT-29 was 45.8 µM (inactive); with MDA-MB-231, > 100 µM (inactive); in the experiment on MDA-N, 56.1 µM (inactive); with Malme-3M, > 100 µM (inactive); in the experiment with OVCAR-3, 48.2 µM (inactive); with OVCAR-5 it was 88.5 µM (inactive). Moreover, the GI50 was 59.6 µM (inactive) in the experiment on OVCAR-8; > 100 µM (inactive) in the experiment on RPMI-8226; 34.8 µM (inactive) in the experiment with RXF 393; 57.4 µM (inactive) in the experiment with SF-268; > 100 µM (inactive) with SF-295; 54.1 µM (inactive) with SNB-19. Also, the results for the GI50 with U-251 and in the experiment with UACC-62 were 34.2 µM (inactive) and 71.6 µM (inactive), respectively.

Take `CCOC(=O)c1c2c(n3ccccc13)C(=O)c1ccccc1C2=O`: the GI50 in the experiment with 786-0 is 19.1 µM (inactive); in the experiment with A549, 3.82 µM (inactive); in the experiment with ACHN it was 17.9 µM (inactive); with BT-549, 21.6 µM (inactive); with CAKI-1, > 100 µM (inactive); in the experiment with DU-145 it was > 100 µM (inactive). Moreover, the GI50 with HT-29 was > 100 µM (inactive); in the experiment with MDA-MB-231 it was > 100 µM (inactive); with MDA-N, > 100 µM (inactive); in the experiment on Malme-3M, 7.91 µM (inactive); in the experiment with OVCAR-3, > 100 µM (inactive); in the experiment on OVCAR-5, > 100 µM (inactive). The GI50 is > 100 µM (inactive) in the experiment on OVCAR-8; > 100 µM (inactive) with RPMI-8226; 48.1 µM (inactive) in the experiment on RXF 393; 31.3 µM (inactive) in the experiment on SF-268; > 100 µM (inactive) in the experiment on SF-295; 80 µM (inactive) with SNB-19. Also, the GI50 in the experiment with U-251 is 54.5 µM (inactive); in the experiment with UACC-62, 67.9 µM (inactive).
